Entries after “also recorded” stand apart in the source; their conditions may differ.
What was measured:
MDA-MB-435 = test: NCI60 single-dose SRB assay; type: cell-based, human; details: MDA-MB-435, Melanoma, 10 μM
Description: (§1) Compounds 19 and 20 were supplied to National Cancer Institute (USA), for sulforhodamine B (SRB) assay and anticancer screening. Single-dose (10 µM) assay results for compounds 19 and 20 were provided as a mean of percent growth (% G) and growth inhibition (% GI) against 60 cell lines of nine types of cancers and are tabulated in Table 4. […] Both the compounds 19 and 20 were also found active on UO-31 renal cancer cell line with % GI of 21.18 and 29.95, respectively.
(§2) Compounds 19 and 20 were supplied to National Cancer Institute (Bethesda, Maryland, USA), for in vitro sulforhodamine B (SRB) assay, anticancer screening on 60 cell lines of cancers of leukemia, melanoma, and tumors of the kidney, brain, breast, lung, colon, ovary, and prostate, as per their standard protocol. One dose anticancer results (NCI, USA) of compounds 19 and 20 are provided in the Supplementary Materials.

OVCAR-8 = test: NCI60 single-dose SRB assay; type: cell-based, human; details: OVCAR-8, Ovarian Cancer, 10 μM
Description: as §1, §2

RPMI-8226 = test: NCI60 single-dose SRB assay; type: cell-based, human; details: RPMI-8226, Leukemia, 10 μM
Description: as §1, §2

SK-MEL-28 = test: NCI60 single-dose SRB assay; type: cell-based, human; details: SK-MEL-28, Melanoma, 10 μM
Description: as §1, §2

[1] = test system: formalin-induced nociception; test: Formalin-induced analgesic (nociception) test; type: in vivo, Male Wistar rats
Source text: The formalin-induced analgesic test is an extensively acknowledged animal nociception model. In order to evaluate both central and peripheral effects of the compound (20), formalin-induced nociception model was selected for analgesic activity. The formalin induced behavioral response comprises two typical phases, stage I and II. Stage I persists up to five minutes after formalin injection and is characterized by acute pain with vigorous licking and biting of the injected site. Stage I consists the action formalin on afferent C-fiber nociceptors. While Stage II starts 10–30 min after formalin injection and persists till 60 min, characterized by periodic licking and biting of the injected site. Stage II imitates the action of central sensitization of the spinal dorsal horn neurons.
Figure 5 Formalin-induced analgesic test; a dose of the test compound 20 (5, 10, 30, and 50 mg/kg, p.o, suspended in 0.5% CMC) was administered 4 h before formalin injection (50 µL, 2.5%). Reference drug, gabapentin (100 mg/kg, i.p, dissolved in 0.9% normal saline) was injected 30 min before formalin injection. Total paw licking and biting duration, Stage I (white bar, 0–5 min) and stage II (black bar, 10–30 min) was recorded as a measure of pain behavior. Data is represented as mean ± SEM from a group of 10 animals. * p < 0.05, ** p < 0.01, p > 0.05 (NS, nonsignificant) vs. control (vehicle). GBP: Gabapentin; D5, D10, D30, andD50 are the dose concentrations of test compound 20.
Male Wistar rats (180–200 g) were obtained with the permission of IAEC (proposal number 1048) from Jamia Hamdard, New Delhi, India. The results of test compound 20 and reference drug, Gabapentin (GBP), were statistically compared with the control group.

Compound	% G (MDA-MB-435)	% GI (MDA-MB-435)	% G (OVCAR-8)	% GI (OVCAR-8)	% G (RPMI-8226)	% GI (RPMI-8226)	% G (SK-MEL-28)	% GI (SK-MEL-28)	pain response in acute (Stage I) and late (Stage II) phases ([1]; 5, 10, 30, and 50 mg/kg p.o., 4 h prior to formalin injection)	reduction in pain response compared with positive control GBP ([1]; at 30 mg/kg p.o., GBP 100 mg/kg i.p.)
O=C1CC(c2nc3ccccc3o2)CN1c1ccc([N+](=O)[O-])cc1 (stereo not drawn) [Compound 19, 4-(Benzo[d]oxazol-2-yl)-1-(4-nitrophenyl)pyrrolidin-2-one]	95.05%	4.95%	101.95%	−1.95%	101.28%	−1.28%	111.25%	−11.25%	–	–
NS(=O)(=O)c1ccc(N2CC(c3nc4ccccc4o3)CC2=O)cc1 (stereo not drawn) [Compound 20, 4-(4-(Benzo[d]oxazol-2-yl)-2-oxopyrrolidin-1-yl)benzenesulfonamide]	100.55%	−0.55%	97.49%	2.51%	103.53%	−3.53%	101.79%	−1.79%	reduced the pain response in acute and late stages in a dose-dependent manner; also recorded: reduced the pain response significantly both in acute (Stage I) and late (Stage II) phases, in a dose-dependent manner; also recorded: reduced the pain response significantly both in acute (stage I) and late (stage II) phases in a dose-dependent manner	better potency than the positive control gabapentin (GBP)

From article PMC8074287, “Analgesic and Anticancer Activity of Benzoxazole Clubbed 2-Pyrrolidinones as Novel Inhibitors of Monoacylglycerol Lipase” (Molecules, 2021)
